Source: US7476685B2, “Pyridine carboxamide derivatives and their use as pesticides” (Merial Limited, priority 2002, dated 2009)

Assays:
[1] = tested on: black bean aphids (Aphis fabae); test: Method A: field bean plants and black bean aphids dipped into aqueous solution of the formulated preparation; format: in vivo; details: 100 ppm (content of active compound), plants (Vicia faba) and aphids dipped 5 seconds, after 3 and 6 days of storage, read-out: mortality among the aphids
Experimental: Germinated field bean seeds (Vicia faba) with seed roots were transferred into brown glass bottles filled with tap water and then populated with about 100 black bean aphids (Aphis fabae). Plants and aphids were then dipped into an aqueous solution of the formulated preparation to be examined for 5 seconds. After they had drained, plants and animals were stored in a climatized chamber (16 hours of light/day, 25° C., 40-60% relative atmospheric humidity). After 3 and 6 days of storage, the effect of the preparation on the aphids was determined.

[2] = tested on: black bean aphids (Aphis fabae); test: Method B: root-systemic action against black bean aphids on field bean, preparation pipetted into the water; format: in vivo; details: 10 ppm (content of active compound), 4 ml solution pipetted into bottle with Vicia faba roots, after 3 and 6 days of storage, read-out: mortality among the aphids, by root-systemic action
Experimental: Germinated field bean seeds (Vicia faba) with seed roots were transferred into brown glass bottles filled with tap water. Four milliliters of an aqueous solution of the formulated preparation to be examined were pipetted into the brown glass bottle. The field bean was then heavily populated with about 100 black bean aphids (Aphis fabae). Plants and aphids were then stored in a climatized chamber (16 hours of light/day, 25° C., 40-60% relative atmospheric humidity). After 3 and 6 days of storage, the root-systemic effect of the preparation on the aphids was determined.

Row | Compound | mortality at 100 ppm [1] | mortality at 10 ppm [2]
1 | O=C(NC(=S)OCC(F)(F)F)c1cnccc1C(F)(F)F [Compound X-45, 2,2,2-trifluoroethyl N-(4-trifluoromethyl-3-pyridylcarbonyl)thiocarbamate] | ≥ 50% | ≥ 80%
2 | C=CCN(C(=O)c1cnccc1C(F)(F)F)C(=O)N(C)OC [Compound E-85, 1-methyl-1-methoxy-3-allyl-3-(4-trifluoromethyl-3-pyridylcarbonyl)urea] | ≥ 50% | ≥ 80%
3 | CC(C)N1OCCN(C(=O)c2cnccc2C(F)(F)F)C1=O [Compound U-3, 2-isopropyl-4-(4-trifluoromethyl-3-pyridylcarbonyl)-perhydro-1,2,4-oxadiazin-3-one] | ≥ 50% | ≥ 80%
4 | CN(C(=S)NC(=O)c1cnccc1C(F)(F)F)c1ccccc1 [Compound B-349, 1-methyl-1-phenyl-3-(4-trifluoromethyl-3-pyridylcarbonyl)thiourea] | ≥ 50% | ≥ 80%
5 | O=C(NC(=O)N(CCO)Cc1ccccc1)c1cnccc1C(F)(F)F [Compound A-862, 1-benzyl-1-(2-hydroxyethyl)-3-(4-trifluoromethyl-3-pyridylcarbonyl)urea] | ≥ 50% | ≥ 80%
6 | CC(C)N(O)C(=O)NC(=O)c1cnccc1C(F)(F)F [Compound A-540, 1-hydroxyl-1-isopropyl-3-(4-trifluoromethyl-3-pyridylcarbonyl)urea] | ≥ 50% | ≥ 80%
7 | CON(C)C(=O)NC(=O)c1cnccc1C(F)(F)F [Compound A-313, 1-methyl-1-methoxy-3-(4-trifluoromethyl-3-pyridylcarbonyl)urea] | – | ≥ 80%
